ChEMBL document CHEMBL1201862, “PubChem BioAssay data set” (2004)
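Step 1: Grow cells in 96-well plates. Step 2: Expose to compound for 48 hours at 5 concentrations. Step 3: Interpolate endpoints linearly; if unreached, use highest concentration. The concentration for 50% growth inhibition is given as GI50.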 The source made the active and inactive calls. Cut-off read from the data, not from the text of the source: active = GI50 up to about 1.1 µM and inactive = higher.

Assays:
Assay in all cases: NCI tumour cell line growth inhibition, 48 h
786-0 = tested on: 786-0
A549 = tested on: A549
ACHN = tested on: ACHN
BT-549 = tested on: BT-549
CAKI-1 = tested on: CAKI-1
CCRF-CEM = tested on: CCRF-CEM
COLO 205 = tested on: COLO 205
DU-145 = tested on: DU-145
EKVX = tested on: EKVX
HCC 2998 = tested on: HCC 2998
HCT-116 = tested on: HCT-116
HCT-15 = tested on: HCT-15
HL-60 = tested on: HL-60
HOP-62 = tested on: HOP-62
HOP-92 = tested on: HOP-92
HT-29 = tested on: HT-29
Hs-578T = tested on: Hs-578T
IGROV-1 = tested on: IGROV-1
K562 = tested on: K562
KM12 = tested on: KM12
LOX IMVI = tested on: LOX IMVI
M14 = tested on: M14
MCF7 = tested on: MCF7
MDA-MB-231 = tested on: MDA-MB-231
MDA-MB-435 = tested on: MDA-MB-435
MDA-N = tested on: MDA-N
MOLT-4 = tested on: MOLT-4
Malme-3M = tested on: Malme-3M
NCI-H226 = tested on: NCI-H226
NCI-H23 = tested on: NCI-H23
NCI-H460 = tested on: NCI-H460
NCI-H522 = tested on: NCI-H522
NCI/ADR-RES = tested on: NCI/ADR-RES
OVCAR-3 = tested on: OVCAR-3
OVCAR-4 = tested on: OVCAR-4
OVCAR-5 = tested on: OVCAR-5
OVCAR-8 = tested on: OVCAR-8
PC-3 = tested on: PC-3
RPMI-8226 = tested on: RPMI-8226
RXF 393 = tested on: RXF 393
SF-268 = tested on: SF-268
SF-295 = tested on: SF-295
SF-539 = tested on: SF-539
SK-MEL-5 = tested on: SK-MEL-5
SK-OV-3 = tested on: SK-OV-3
SN12C = tested on: SN12C
SNB-19 = tested on: SNB-19
SR = tested on: SR
SW-620 = tested on: SW-620
T47D = tested on: T47D
TK-10 = tested on: TK-10
U-251 = tested on: U-251
UACC-257 = tested on: UACC-257
UACC-62 = tested on: UACC-62
UO-31 = tested on: UO-31
SK-MEL-28 = tested on: SK-MEL-28
SK-MEL-2 = tested on: SK-MEL-2
SNB-75 = tested on: SNB-75
A498 = tested on: A498

CCCCC1Cc2cc(O)ccc2-c2nc3cc(O)ccc3n21.CCCCC1Cc2cc(O)ccc2-c2nc3ccc(O)cc3n21 (stereo not drawn)
GI50 (786-0): 19 µM (inactive)
GI50 (A549): 16.3 µM (inactive)
GI50 (ACHN): 13.9 µM (inactive)
GI50 (BT-549): 19.2 µM (inactive)
GI50 (CAKI-1): 23.7 µM (inactive)
GI50 (CCRF-CEM): 19.2 µM (inactive)
GI50 (COLO 205): 15.7 µM (inactive)
GI50 (DU-145): 28.5 µM (inactive)
GI50 (EKVX): 17.2 µM (inactive)
GI50 (HCC 2998): 14.3 µM (inactive)
GI50 (HCT-116): 14 µM (inactive)
GI50 (HCT-15): 11 µM
GI50 (HL-60): 19.1 µM (inactive)
GI50 (HOP-62): 14.4 µM (inactive)
GI50 (HOP-92): 4.28 µM (inactive)
GI50 (HT-29): 16.3 µM (inactive)
GI50 (Hs-578T): 16.3 µM (inactive)
GI50 (IGROV-1): 13 µM (inactive)
GI50 (K562): 10.7 µM (inactive)
GI50 (KM12): 19.4 µM (inactive)
GI50 (LOX IMVI): 16.8 µM (inactive)
GI50 (M14): 15.3 µM (inactive)
GI50 (MCF7): 19.2 µM (inactive)
GI50 (MDA-MB-231): 13.6 µM (inactive)
GI50 (MDA-MB-435): 11.9 µM (inactive)
GI50 (MDA-N): 14.3 µM (inactive)
GI50 (MOLT-4): 13.6 µM (inactive)
GI50 (Malme-3M): 21.8 µM (inactive)
GI50 (NCI-H226): 18.4 µM (inactive)
GI50 (NCI-H23): 21.9 µM (inactive)
GI50 (NCI-H460): 14.8 µM (inactive)
GI50 (NCI-H522): 11.1 µM (inactive)
GI50 (NCI/ADR-RES): 18.6 µM (inactive)
GI50 (OVCAR-3): 21.7 µM (inactive)
GI50 (OVCAR-4): 7.45 µM (inactive)
GI50 (OVCAR-5): 16.6 µM (inactive)
GI50 (OVCAR-8): 21.4 µM (inactive)
GI50 (PC-3): 12.6 µM (inactive)
GI50 (RPMI-8226): 12.4 µM (inactive)
GI50 (RXF 393): 19.1 µM (inactive)
GI50 (SF-268): 12 µM (inactive)
GI50 (SF-295): 15.2 µM (inactive)
GI50 (SF-539): 14.8 µM (inactive)
GI50 (SK-MEL-5): 13.5 µM (inactive)
GI50 (SK-OV-3): 18.5 µM (inactive)
GI50 (SN12C): 16.5 µM (inactive)
GI50 (SNB-19): 11 µM (inactive)
GI50 (SR): 12.6 µM (inactive)
GI50 (SW-620): 16.9 µM (inactive)
GI50 (T47D): 19.9 µM (inactive)
GI50 (TK-10): 18.6 µM (inactive)
GI50 (U-251): 14.4 µM (inactive)
GI50 (UACC-257): 15.8 µM (inactive)
GI50 (UACC-62): 12.8 µM (inactive)
GI50 (UO-31): 13.1 µM (inactive)

CC1(c2nc3ccccc3[nH]2)CCC(C(N)=O)C(C)(C)O1 (stereo not drawn)
GI50 (786-0): > 100 µM (inactive)
GI50 (A549): > 100 µM (inactive)
GI50 (ACHN): > 100 µM (inactive)
GI50 (BT-549): > 100 µM (inactive)
GI50 (CAKI-1): > 100 µM (inactive)
GI50 (CCRF-CEM): > 100 µM (inactive)
GI50 (COLO 205): > 100 µM (inactive)
GI50 (DU-145): > 100 µM (inactive)
GI50 (EKVX): > 100 µM (inactive)
GI50 (HCC 2998): > 100 µM (inactive)
GI50 (HCT-116): > 100 µM (inactive)
GI50 (HCT-15): > 100 µM
GI50 (HL-60): > 100 µM (inactive)
GI50 (HOP-62): > 100 µM (inactive)
GI50 (HOP-92): > 100 µM (inactive)
GI50 (HT-29): > 100 µM (inactive)
GI50 (Hs-578T): > 100 µM (inactive)
GI50 (IGROV-1): > 100 µM (inactive)
GI50 (K562): > 100 µM (inactive)
GI50 (KM12): > 100 µM (inactive)
GI50 (LOX IMVI): > 100 µM (inactive)
GI50 (M14): > 100 µM (inactive)
GI50 (MCF7): > 100 µM (inactive)
GI50 (MDA-MB-231): > 100 µM (inactive)
GI50 (MDA-MB-435): > 100 µM (inactive)
GI50 (MDA-N): > 100 µM (inactive)
GI50 (MOLT-4): > 100 µM (inactive)
GI50 (Malme-3M): > 100 µM (inactive)
GI50 (NCI-H226): > 100 µM (inactive)
GI50 (NCI-H23): > 100 µM (inactive)
GI50 (NCI-H522): > 100 µM (inactive)
GI50 (NCI/ADR-RES): > 100 µM (inactive)
GI50 (OVCAR-3): > 100 µM (inactive)
GI50 (OVCAR-4): > 100 µM (inactive)
GI50 (OVCAR-5): > 100 µM (inactive)
GI50 (OVCAR-8): > 100 µM (inactive)
GI50 (PC-3): > 100 µM (inactive)
GI50 (RPMI-8226): > 100 µM (inactive)
GI50 (RXF 393): > 100 µM (inactive)
GI50 (SF-268): > 100 µM (inactive)
GI50 (SF-295): > 100 µM (inactive)
GI50 (SF-539): > 100 µM (inactive)
GI50 (SK-MEL-28): > 100 µM (inactive)
GI50 (SK-MEL-2): > 100 µM (inactive)
GI50 (SK-MEL-5): > 100 µM (inactive)
GI50 (SK-OV-3): 55.2 µM (inactive)
GI50 (SN12C): > 100 µM (inactive)
GI50 (SNB-19): > 100 µM (inactive)
GI50 (SNB-75): > 100 µM (inactive)
GI50 (SR): > 100 µM (inactive)
GI50 (SW-620): > 100 µM (inactive)
GI50 (T47D): > 100 µM (inactive)
GI50 (TK-10): > 100 µM (inactive)
GI50 (U-251): > 100 µM (inactive)
GI50 (UACC-257): > 100 µM (inactive)
GI50 (UACC-62): > 100 µM (inactive)
GI50 (UO-31): > 100 µM (inactive)

CCOC(=O)C1(C/C=C/CBr)Cc2ccccc2C1=O (stereo not drawn)
GI50 (786-0): 3.85 µM (inactive)
GI50 (A498): 17.9 µM (inactive)
GI50 (A549): 10.5 µM (inactive)
GI50 (ACHN): 2.43 µM (inactive)
GI50 (BT-549): 2.95 µM (inactive)
GI50 (CAKI-1): 2.42 µM (inactive)
GI50 (CCRF-CEM): 0.796 µM (active)
GI50 (COLO 205): 3.21 µM (inactive)
GI50 (DU-145): 3.38 µM (inactive)
GI50 (EKVX): 14.6 µM (inactive)
GI50 (HCC 2998): 9.02 µM (inactive)
GI50 (HCT-116): 3.71 µM (inactive)
GI50 (HCT-15): 2.24 µM
GI50 (HL-60): 3.21 µM (inactive)
GI50 (HOP-62): 4.03 µM (inactive)
GI50 (HT-29): 2.79 µM (inactive)
GI50 (Hs-578T): 5.53 µM (inactive)
GI50 (IGROV-1): 2.7 µM (inactive)
GI50 (K562): 1.87 µM (inactive)
GI50 (KM12): 3.07 µM (inactive)
GI50 (LOX IMVI): 1.6 µM (inactive)
GI50 (M14): 2.83 µM (inactive)
GI50 (MCF7): 2.48 µM (inactive)
GI50 (MDA-MB-231): 4.7 µM (inactive)
GI50 (MDA-MB-435): 1.72 µM (inactive)
GI50 (MDA-N): 2.2 µM (inactive)
GI50 (MOLT-4): 2.49 µM (inactive)
GI50 (Malme-3M): 2.76 µM (inactive)
GI50 (NCI-H23): 2.02 µM (inactive)
GI50 (NCI-H460): 1.75 µM (inactive)
GI50 (NCI-H522): 1.63 µM (inactive)
GI50 (NCI/ADR-RES): 1.98 µM (inactive)
GI50 (OVCAR-3): 2.17 µM (inactive)
GI50 (OVCAR-4): 2.03 µM (inactive)
GI50 (OVCAR-5): 3.02 µM (inactive)
GI50 (OVCAR-8): 2.39 µM (inactive)
GI50 (PC-3): 4.13 µM (inactive)
GI50 (RPMI-8226): 2.02 µM (inactive)
GI50 (RXF 393): 1.55 µM (inactive)
GI50 (SF-268): 2.91 µM (inactive)
GI50 (SF-295): 8.57 µM (inactive)
GI50 (SF-539): 1.81 µM (inactive)
GI50 (SK-MEL-28): 6.93 µM (inactive)
GI50 (SK-MEL-2): 2.25 µM (inactive)
GI50 (SK-MEL-5): 2.67 µM (inactive)
GI50 (SK-OV-3): 8.69 µM (inactive)
GI50 (SN12C): 1.99 µM (inactive)
GI50 (SNB-19): 5.45 µM (inactive)
GI50 (SNB-75): 5.86 µM (inactive)
GI50 (SW-620): 2.58 µM (inactive)
GI50 (T47D): 1.98 µM (inactive)
GI50 (TK-10): 2.77 µM (inactive)
GI50 (U-251): 3.58 µM (inactive)
GI50 (UACC-257): 8.17 µM (inactive)
GI50 (UACC-62): 2.14 µM (inactive)
GI50 (UO-31): 1.96 µM (inactive)
